Patent US11643417B2, “Tetrahydrobenzofurodiazepinone compound and pharmaceutical use thereof” (priority 2020, dated 2023)
Where two headings read alike, the source gives them in different places.

Biological target: human Pim-1 (Homo sapiens (Human), UniProt P11309)
Test: biochemical
Type: biochemical
Conditions: Ki converted from IC50, purified human Pim-1, Pim2tide substrate, ADP-Glo
Description: The human Pim-1 inhibitory activity of the test compounds was evaluated as follows.
(1) Purification of Human Pim-1
DNA fragment in which a His-Tag sequence and a translation termination sequence are added to the 3′-end of human Pim-1 translation sequence was amplified by PCR (Polymerase Chain Reaction), using human Pim-1 gene-inserted plasmid DNA (Kazusa DNA Laboratory, model number FXC11400) as a template. The amplified DNA fragment was fused with pGEx-6P-1 (GE Healthcare Japan, model number 27-4597-1) digested with BamHI and EcoRI using In-Fusion HD Cloning Kit (Takara Bio, model number 639649). […] The base sequence of Pim-1 cloned into vector was determined by Dye Terminator method using BigDye Terminator v3.1 Cycle Sequencing Kit (Applied Biosystems, model number 4337456). […] Escherichia coli BL21 (DE3) (Merck KGaA, model number 69449-4) transformed with human Pim-1-expressed plasmid DNA was cultured in 2×YT medium (Becton Dickinson, model number 2404020) at 30° C., until the optical concentration at 620 nm (OD620) reached 0.6, and then cultured overnight at 20° C. in the presence of 0.5 mmol/L isopropyl b-D-1-thiogalactopyranoside. After the completion of so the culture, the cells were collected and suspended in Homogenate Buffer (50 mmol/L Tris-HCl (pH 7.5), 500 mmol/L NaCl, 1% Tween20, complete, EDTA-free (Roche, model number 1873580)), and the suspended cells were lysed by passing through a microfluidizer M-110H (Mizuho Kogyo Co., Ltd.). The lysate was centrifuged at 10,100×g for 10 minutes, 4° C., and the supernatant was filtered through MILLEX-HV Filter (0.45 μm) (Millipore, SLHV033RS) to remove the cell residues. The filtrate was loaded onto complete His-Tag Purification Resin (Roche Diagnostics, model number 05 893 682 0.01). The column was washed with Equilibration Buffer-1 (50 mmol/L Tris-HCl (pH 7.5), 500 mmol/L NaCl, 1% Tween 20) containing 5 mmol/L Imidazole, followed by Equilibration Buffer-1 containing 50 mmol/L Imidazole, the human Pim-1 to which GST-Tag derived from pGEx-6P-1 was eluted with Equilibration Buffer-1 containing 150 mmol/L imidazole. […] The protease reaction was carried out by stirring overnight at 4° C., and the human Pim-1 in which the GST-Tag sequence was cleaved was eluted. The eluate was loaded onto a gel filtration column (Superdex-200 […] (GE Healthcare, model number 17-5175-01)) equilibrated with Equilibration Buffer-3 (50 mmol/L Tris-HCl (pH 7.5), 500 mmol/L NaCl, 0.05% Tween20, 0.5 mmol/L EDTA, 2 mmol/L DTT, 10% Glycerol), and eluted. The eluate was used as a human Pim-1 purified fraction.
The protein concentration of the human Pim-1 purified fraction was measured with Pierce 660 nm Protein Assay Reagent (Thermo Fisher Scientific, model number 22660). The purified fraction was rapidly frozen in liquid nitrogen, and then stored at −80° C. The His-Tag-added human Pim-1 was detected by Western blotting using a mouse anti-His monoclonal antibody (WAKO, model number 011-23091).
(2) Evaluation of Human Pim-1 Inhibitory Activity
The calculation of the Pim-1 inhibitory activity of the compound was performed using the following solution according to the protocol attached to ADP-Glo Kinase Assay (cat. V9102, Promega). The purified enzyme of human Pim-1 described above was used.
(i) Preparation of Solution
The kinase buffer solution (50 mmol/L HEPES (pH 7.5), 5 mmol/L MgCl2, 1 mmol/L DTT, 0.05% BSA) was prepared by dissolving HEPES (Jena Bioscience), MgCl2 (Sigma-Aldrich), DTT (Sigma-Aldrich) and BSA (Sigma-Aldrich) in purified water.
The ATP solution (288 μmol/L) was prepared by dissolving 100 mmol/L ATP (Promega) in the kinase buffer solution.

Sequence of human Pim-1 (P11309 whole entry): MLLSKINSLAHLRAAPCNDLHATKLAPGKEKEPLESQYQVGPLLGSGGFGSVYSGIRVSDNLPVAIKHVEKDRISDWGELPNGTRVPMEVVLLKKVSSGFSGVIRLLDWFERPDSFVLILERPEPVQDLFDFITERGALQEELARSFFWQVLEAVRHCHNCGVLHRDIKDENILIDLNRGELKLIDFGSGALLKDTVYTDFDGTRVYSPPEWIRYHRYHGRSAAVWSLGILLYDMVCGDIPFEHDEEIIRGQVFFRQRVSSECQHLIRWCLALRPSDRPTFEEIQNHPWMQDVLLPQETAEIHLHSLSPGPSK

CS(=O)(=O)C[C@H]1CO[C@H](CCN2CC3(CC3)NC(=O)c3oc4ccc(C(F)(F)F)cc4c32)CO1 [Example 161]
Ki (read-out: hPim1 Ki): 0.188 nM

COC(C1CC(O)(CO)C1)C1(CN2CCNC(=O)c3oc4ccc(C(F)(F)F)cc4c32)CC1 (racemic) [Example 23]
Ki (read-out: hPim1 Ki): 0.805 nM

O=C1NC2(CC2)CN(CC[C@H]2CO[C@@H](CF)CO2)c2c1oc1ccc(C(F)(F)F)cc21 [Example 157]
Ki (read-out: hPim1 Ki): 0.234 nM

NC(=O)C1CCC(CCN2CCNC(=O)c3oc4ccc(C(F)(F)F)cc4c32)CC1 (stereo not shown) [Example 104]
Ki (read-out: hPim1 Ki): 0.819 nM

N#CC[C@H]1CO[C@H](CCN2CCNC(=O)c3oc4ccc(C(F)(F)F)cc4c32)CO1 (racemic) [Example 129]
Ki (read-out: hPim1 Ki): 1.18 nM

O=C1NCCN(CCC2CCC(CO)CC2)c2c1oc1ccc(C(F)(F)F)cc21 (stereo not shown) [Example 97]
Ki (read-out: hPim1 Ki): 0.107 nM

CC1(O)CCOC(C(F)(F)CN2CCNC(=O)c3oc4ccc(C(F)(F)F)cc4c32)C1 (stereo not shown) [Example 66, 1-(2,2-difluoro-2-(4-hydroxy-4-methyltetrahydro-2H-pyran-2-yl)ethyl)-9-(trifluoromethyl)-1,2,3,4-tetrahydro-5H-benzofuro[3,2-e][1,4]diazepin-5-one]
Ki (read-out: hPim1 Ki): 0.0283 nM

O=C1NCCN(CCC2CCC(F)(CO)CC2)c2c1oc1ccc(C(F)(F)F)cc21 (stereo not shown) [Example 150]
Ki (read-out: hPim1 Ki): 0.13 nM

O=C1NCCN(CCC2CCC(O)(C3(O)CC3)CC2)c2c1oc1ccc(C(F)(F)F)cc21 (stereo not shown) [Example 111]
Ki (read-out: hPim1 Ki): 0.011 nM

O=C1NCCN(CCC2CCS(=O)(=O)CC2)c2c1oc1ccc(C(F)(F)F)cc21 [Example 87]
Ki (read-out: hPim1 Ki): 1.97 nM

CS(=O)(=O)C[C@H]1CO[C@@H](CCN2CCNC(=O)c3oc4ccc(C(F)(F)F)cc4c32)CO1 (racemic) [Example 141]
Ki (read-out: hPim1 Ki): 10.3 nM

O=C1NCCN(CC(F)(F)[C@H]2CC[C@H](O)CC2)c2c1oc1ccc(C(F)(F)F)cc21 [Example 165]
Ki (read-out: hPim1 Ki): 0.104 nM

N#CCC1COCC(CCN2CCNC(=O)c3oc4ccc(C(F)(F)F)cc4c32)O1 (racemic) [Example 139]
Ki (read-out: hPim1 Ki): 3.69 nM

C[C@@H]1CO[C@@H](CCN2CCNC(=O)c3oc4ccc(C(F)(F)F)cc4c32)CO1 [Example 44]
Ki (read-out: hPim1 Ki): 1.04 nM

O=C1NCCN(CC(F)(F)C2CC(CO)CCO2)c2c1oc1ccc(C(F)(F)F)cc21 (stereo not shown) [Example 47]
Ki (read-out: hPim1 Ki): 0.0246 nM

O=C1NCCN(CCC2COCC(CF)O2)c2c1oc1ccc(C(F)(F)F)cc21 (racemic) [Example 135]
Ki (read-out: hPim1 Ki): 0.66 nM

O=C1NC2(CC2)CN(CC(F)(F)[C@H]2CC[C@H](O)CC2)c2c1oc1ccc(C(F)(F)F)cc21 [Example 149]
Ki (read-out: hPim1 Ki): 0.0337 nM

O=C(OC[C@H]1CO[C@H](CCN2CCNC(=O)c3oc4ccc(C(F)(F)F)cc4c32)CO1)c1ccccc1 [Example 73]
Ki (read-out: hPim1 Ki): 4.74 nM

N#CC1(CCO)CCOC(CCN2CCNC(=O)c3oc4ccc(C(F)(F)F)cc4c32)C1 (racemic) [Example 7]
Ki (read-out: hPim1 Ki): 0.468 nM

CN1CCN(CC[C@H]2CC[C@](O)(CO)CC2)c2c(oc3ccc(C(F)(F)F)cc23)C1=O [Example 2-03]
Ki (read-out: hPim1 Ki): 0.414 nM

O=C1NCCN(CCC2CC(CO)C2)c2c1oc1ccc(C(F)(F)F)cc21 (stereo not shown) [Example 117]
Ki (read-out: hPim1 Ki): 0.801 nM

O=C1NCCN(CCC2CC3(COC3)C2)c2c1oc1ccc(C(F)(F)F)cc21 [Example 82]
Ki (read-out: hPim1 Ki): 2.06 nM

N#CC1(CCO)CCOC(C(F)(F)CN2CCNC(=O)c3oc4ccc(C(F)(F)F)cc4c32)C1 (stereo not shown) [Example 33]
Ki (read-out: hPim1 Ki): 0.0793 nM

O=C1CCC(C(F)(F)CN2CCNC(=O)c3oc4ccc(C(F)(F)F)cc4c32)CC1 [Example 166]
Ki (read-out: hPim1 Ki): 0.189 nM

COCC1(O)CCC(CCN2CCNC(=O)c3oc4ccc(C(F)(F)F)cc4c32)CC1 (stereo not shown) [Example 112]
Ki (read-out: hPim1 Ki): 1.03 nM

O=C1NCCN(CC[C@@H]2CO[C@H](CO)CO2)c2c1oc1ccc(C(F)(F)F)cc21 [Example 72]
Ki (read-out: hPim1 Ki): 2.29 nM

O=C1NCCN(CC[C@H]2CC[C@@H](O)CC2)c2c1oc1ccc(C(F)(F)F)cc21 [Example 83]
Ki (read-out: hPim1 Ki): 0.762 nM

C[C@H]1CO[C@H](CCN2CCNC(=O)c3oc4ccc(C(F)(F)F)cc4c32)CO1 [Example 63]
Ki (read-out: hPim1 Ki): 0.452 nM

O=C1NCCN(CCC2CCC(C3(O)CC3)CC2)c2c1oc1ccc(C(F)(F)F)cc21 (stereo not shown) [Example 110]
Ki (read-out: hPim1 Ki): 0.133 nM

CC1(O)CCC(CCN2CC3(CC3)NC(=O)c3oc4ccc(C(F)(F)F)cc4c32)CC1 (single isomer, unassigned) [Example 127]
Ki (read-out: hPim1 Ki): 0.0532 nM

O=C1NC2(CC2)CN(CC[C@@H]2CO[C@H](CF)CO2)c2c1oc1ccc(C(F)(F)F)cc21 [Example 156]
Ki (read-out: hPim1 Ki): 0.0103 nM

CC(C)(O)C1CCOC(C(F)(F)CN2CCNC(=O)c3oc4ccc(C(F)(F)F)cc4c32)C1 (stereo not shown) [Example 49]
Ki (read-out: hPim1 Ki): 0.0389 nM

COC(C1CC(O)C1)C1(CN2CCNC(=O)c3oc4ccc(C(F)(F)F)cc4c32)CC1 (stereo not shown) [Example 17]
Ki (read-out: hPim1 Ki): 0.234 nM

O=C1NCCN(CC(F)(F)[C@H]2CC[C@H](O)CC2)c2c1oc1ccc(C(F)(F)F)cc21 [Example 106, 1-(2,2-difluoro-2-((1r,4r)-4-hydroxycyclohexyl)ethyl)-9-(trifluoromethyl)-1,2,3,4-tetrahydro-5H-benzofuro[3,2-e][1,4]diazepin-5-one]
Ki (read-out: hPim1 Ki): 0.0409 nM

CC1COC(CCN2CCNC(=O)c3oc4ccc(C(F)(F)F)cc4c32)CC1O (stereo not shown) [Example 3]
Ki (read-out: hPim1 Ki): 0.606 nM

O=C1NCCN(CC(F)(F)C2COCCO2)c2c1oc1ccc(C(F)(F)F)cc21 (single isomer, unassigned) [Example 70]
Ki (read-out: hPim1 Ki): 0.0734 nM

O=C1NCCN(CC2(F)COC2)c2c1oc1ccc(C(F)(F)F)cc21 [Example 16]
Ki (read-out: hPim1 Ki): 10.9 nM

O=C1NCCN(CCC2CCC(O)CC2)c2c1oc1ccc(C(F)(F)F)cc21 (stereo not shown) [Example 60]
Ki (hPim1 Ki (nM)): 0.273 nM

O=C1NCCN(CCC2CCC(O)(C(F)(F)CO)CC2)c2c1oc1ccc(C(F)(F)F)cc21 (single isomer, unassigned) [Example 118]
Ki (read-out: hPim1 Ki): 0.127 nM

O=C1NCCN(CC(F)(F)C2CC(O)CCC2(F)F)c2c1oc1ccc(C(F)(F)F)cc21 (stereo not shown) [Example 62]
Ki (read-out: hPim1 Ki): 0.0461 nM

CC1(O)CCOC(C(F)(F)CN2CCNC(=O)c3oc4ccc(C(F)(F)F)cc4c32)C1 (stereo not shown) [Example 59, 1-(2,2-difluoro-2-(4-hydroxy-4-methyltetrahydro-2H-pyran-2-yl)ethyl)-9-(trifluoromethyl)-1,2,3,4-tetrahydro-5H-benzofuro[3,2-e][1,4]diazepin-5-one]
Ki (read-out: hPim1 Ki): 0.107 nM

CN1CCN(CC(F)(F)C2CC(O)CCO2)c2c(oc3ccc(C(F)(F)F)cc23)C1=O (stereo not shown) [Example 20]
Ki (read-out: hPim1 Ki): 0.38 nM

CC1(O)CCC(CCN2CC3(CC3)NC(=O)c3oc4ccc(C(F)(F)F)cc4c32)CC1 (single isomer, unassigned) [Example 128]
Ki (read-out: hPim1 Ki): 0.031 nM

O=C1NCCN(CC(F)(F)C2CCOCC2)c2c1oc1ccc(C(F)(F)F)cc21 [Example 65]
Ki (read-out: hPim1 Ki): 0.12 nM

O=C1NCCN(CC[C@H]2CC[C@](O)(CO)CC2)c2c1oc1ccc(C(F)(F)F)cc21 [Example 90, 1-(2-((1s,4s)-4-hydroxy-4-(hydroxymethyl)cyclohexyl)ethyl)-9-(trifluoromethyl)-1,2,3,4-tetrahydro-5H-benzofuro[3,2-e][1,4]diazepin-5-one]
Ki (read-out: hPim1 Ki): 0.0091 nM

O=C1NCCN(CC(F)(F)C2COCCO2)c2c1oc1ccc(C(F)(F)F)cc21 (racemic) [Example 56]
Ki (hPim1 Ki (nM)): 0.0723 nM

O=C1NC2(CC2)CN(CC[C@@H]2CO[C@H](CO)CO2)c2c1oc1ccc(C(F)(F)F)cc21 [Example 153]
Ki (read-out: hPim1 Ki): 0.302 nM

O=C1NC2(CC2)CN(CCC2CCC(O)CC2)c2c1oc1ccc(C(F)(F)F)cc21 (stereo not shown) [Example 125]
Ki (hPim1 Ki (nM)): 0.0592 nM

CS(=O)(=O)CC1COCC(CCN2CCNC(=O)c3oc4ccc(C(F)(F)F)cc4c32)O1 (racemic) [Example 137]
Ki (read-out: hPim1 Ki): 5.36 nM
